1 substance from patent US20070197432A1, “Peptides for preventing, diagnosing and treating animal and/or human leptospirosis” (priority 2002, published 2007) can be followed below.

The test system of data set [1] is Leptospira interrogans sl serovar canicola. Briefly: Dogs immunized with PP-KLH, canicola challenge: clinical, hematological and biochemical parameters. Format: in vivo, dog. The procedure: An immunization/challenge protocol was carried out in order to evaluate the protection that can be provided by the PP peptide (SEQ ID No. 1) NH2-coupled to the KLH carrier protein (FIG. 14).
(§1) This construct is administered subcutaneously without adjuvant, with PBS as a negative control (batch 2).
Batch 1: 6 SPF dogs, 2 injections of 250 μg of PP-KLH in 1 ml subcutaneously.
Batch 2: 6 SPF dogs, control.
The two injections were administered subcutaneously, […].
The challenge (CH) was carried out on D0.
The animals are given a challenge at a rate of one virulent culture of 4 to 6 days. For an immunized batch and a control batch, each animal received, in each eye, 0.3 ml of the culture having a titer of 120 TU (i.e. 2×10^8 leptospires per ml) and, intraperitoneally, 4 ml of the same culture diluted ten-fold.
The challenge phase was carried out from D-1 to […], with the challenge on D0.
During this phase, the temperature was measured on D0, D1, D2, D3, D4, D5, D6 and D7.
The hematological parameters were measured on D-1, D3, D7, D10, D14, D15 and D41.
The biochemical parameters were measured on D-1, D3, D7, D10, D14, D18, D25 and D41.

Data set [2] has the same test system. Nature of the data set: Dogs immunized with PP-KLH, canicola challenge: cultures of plasma, urine and kidney samples. Format: in vivo, dog.
The test system of data set [3] is PP peptide. Briefly: Trial 1: anti-PP IgG ELISA of gerbils immunized with PP-KLH. Type of data set: in vivo, gerbil. To be noted: three dilutions observed. As to the method: An immunization/challenge protocol was carried out in order to evaluate the protection that can be provided by the PP peptide (SEQ ID No. 1) coupled to the KLH protein.
as §1
Batch 1: 10 gerbils, 2 injections of 30 μg of PP-KLH in 300 μl, subcutaneously.
The two injections in a volume of 300 μl were administered subcutaneously, two weeks apart. A challenge by intraperitoneal injection of 0.5 ml of a canicola culture with a titer of 90 to 100 TU (turbidimetry) diluted to 10^−2.5 was administered two weeks after the second injection. • Antigenic response: Monitoring by ELISA of the immune response of the gerbils against the PP peptide
The anti-PP antibodies were titered in the gerbil by means of an ELISA technique (described above) with a biotinylated anti-gerbil antiglobulin (BioAtlantic) at 1/3000 and, as visualizing agent, peroxidase-coupled streptavidin (RPN1231, Amersham pharmacia biotech).
For each batch of gerbils, the sera were combined with respect to the various sample dates D0 (before the first immunization), D14 (before the second immunization) and D28 (before the challenge).
The results of the IgG antibody response against the PP peptide, expressed as corrected OD (OD of the treated sera corrected with respect to the OD of the control sera), are given in FIG. 11.

In data set [4] the test system is PP peptide. Nature of the data set: Immunization of mice with PP peptide coupled to KLH, anti-PP IgG1/IgG2A ELISA. Type of data set: in vivo. The procedure: A batch of 5 mice was formed. Two injections were administered subcutaneously, two weeks apart. The 1st injection consists of 10 μg of PP peptide coupled to KLH, with complete Freund's adjuvant, in a volume of 200 μl (v/v). The 2nd injection consists of 10 μg of PP peptide coupled to KLH, with incomplete Freund's adjuvant, in a volume of 200 μl (v/v). This trial was carried out twice.
In parallel, a batch of 5 mice given nothing is used as a control.
A blood sample was taken two weeks after the second injection for serological monitoring.
The anti-PP antibodies produced in the mice are titered by means of an ELISA technique either on individual serological samples or on pools of several sera. The PP antigen is adsorbed in Immulon 4 plates (Dynatech) at a rate of 500 ng of PP per well diluted in 10 mM sodium carbonate buffer, pH=9.4.
After an overnight period at 4° C., the plates are washed with PBS containing 0.2% tween20, and then saturated with a solution of 1% BSA in TNE (50 mM Tris, 150 mM NaCl, 1 mM EDTA, pH 7.4) for 60 min at 37° C. […] The colored reaction is read in a spectrophotometer at 405 nm.
The results of the anti-PP IgG1 antibody response, expressed as corrected OD, of the immunization trials 1 and 2 with the PP peptide coupled to KLH are given in FIG. 1. […]
(In an ELISA, binding on a coated surface is turned into a signal by an enzyme label.)

No end group written: not given here.

Take “PP-KLH: PP peptide with cysteine added at the N-terminal position, coupled via sulfo-MBS to KLH carrier protein (keyhole limpet hemocyanin) (KAKPVQKLDDDDDGDDTYKEERHNK; not fully specified (N-terminus))”: the thrombocytopenia result in data set [1] (after challenge) is reported as “significantly more pronounced in the controls than in the immunized dogs”. For the same substance, the “p, difference in temperature, control versus immunized dogs (controls more pronounced febrile peak)” value in data set [1] (at D3 and D4) was below 0.05. The “P, evolution of mean increase in temperature, control versus immunized dogs (not significantly different)” value in data set [1] (between D0 and D7) came to 0.7944. Also, the “P, evolution of white blood cells, control versus immunized dogs (not significantly different)” value in data set [1] (between D-1 and D41) is listed as 0.4407. Moreover, the “p, evolution of mean variation in platelets, control versus immunized dogs (significantly different)” value in data set [1] (between D-1 and D41) was found to be 0.0412. The “mortality following the challenge” value in data set [1] (dogs, immunized and control) is “No mortality”. The “protection against a canicola challenge in dogs” value in data set [1] (overall conclusion) was “makes it possible to induce protection”. In addition, the “p, tendency for higher urea level in the controls (no significant difference)” value in data set [1] (period of acute effect in the kidneys (D0-D10)) is recorded as below 0.15. Besides, the “p, urea level in the controls significantly higher” value in data set [1] (period of kidney colonization (D10-D41)) is listed as below 0.02. Also, the positive cultures/dogs was 5/6 in data set [2] (Kidneys, D41) and 3/6 in data set [2] (Urine, D7). In addition, the “boost effect of second injection: corrected OD at D28 relative to D14” value in the data set with PP peptide [3] was “more than double”. Moreover, in the data set with PP peptide [4], the immunogenicity result is “very immunogenic”. For the same substance, in the data set on PP peptide [4] (2 s.c. injections of 10 μg with Freund's adjuvant), the “anti-PP IgG2A antibody response” value is listed as “high but less substantial than the anti-PP IgG1 response”.
